For one series, the system named is Male Sprague-Dawley rats. The series can be described thus: Determination of serum HDL cholesterol in cholesterol/cholic acid-fed rats. The series is classed as in vivo, rat. The conditions noted are these: dose of 100 mg/kg mixed in diet, eight days, six rats per group, diet with 0.25% cholic acid and 1.0% cholesterol, serum HDL cholesterol by FPLC; for change in vivo at 100 mg/kg: Rattus norvegicus, feed or water, 192 h, read-out: HDL Cholesterol Level Increase (%). How it is done:
The ability of the compounds of this invention to increase blood serum HDL levels was evaluated by the following standard experimental procedure for determination of HDL cholesterol:
Male Sprague-Dawley rats weighing 200-225 g were housed two per cage and fed Purina Rodent Chow Special Mix 5001-S supplemented with 0.25% cholic acid and 1.0% cholesterol and water ad libitum for 8 days. Each test substance was administered to a group of six rats fed the same diet with the test diet mixed in as 0.005-0.1% of the total diet. Body weight and food consumption were recorded prior to diet administration and at termination. Typical doses of the test substances are 5-100 mg/kg/day.
At termination, blood was collected from anesthetized rats and the serum was separated by centrifugation. Total serum cholesterol was assayed using the Sigma Diagnostics enzymatic kit for the determination of cholesterol, Procedure No. 352, modified for use with ninety-six well microtiter plates. After reconstitution with water the reagent contained 300 U/l cholesterol oxidase, 100 U/l cholesterol esterase, 1000 U/l horseradish peroxidase, […] p-hydroxybenzenesulfonate in a pH 6.5 buffer. In the reaction cholesterol is oxidized to produce hydrogen peroxide which is used to form a quinoneimine dye. The concentration of dye formed is measured spectrophotometrically by absorbence at 490 nm after incubation at 25° C. for 30 minutes. The concentration of cholesterol was determined for each serum sample relative to a commercial standard from Sigma.
HDL cholesterol concentrations in serum were determined by separation of lipoprotein classes by fast protein liquid chromatography (FPLC) by a modification of the method of Kieft et al., J. Lipid Res., 32 (1991) 859-866. 25 ul of serum was injected onto Superose 12 and Superose 6 (Pharmacia), in series, with a column buffer of 0.05 M Tris (2-amino-2-hydroxymethyl-1,3-propanediol) and 0.15 M sodium chloride at a flow rate of 0.5 ml/min. The eluted sample was mixed on line with Boehringer-Mannheim cholesterol reagent pumped at 0.2 ml/min. The combined eluents were mixed and incubated on line through a knitted coil (Applied Biosciences) maintained at a temperature of 45° C. The eluent was monitored by measuring absorbance at 490 nm and gave a continuous absorbance signal proportional to the cholesterol concentration. The relative concentration of each lipoprotein class was calculated as the per cent of total absorbency. HDL cholesterol concentration, in serum, was calculated as the per cent of total cholesterol as determined by FPLC multiplied by the total serum cholesterol concentration.
Test compounds were administered at a dose of 100 mg/kg. Each test substance was administered to a group of six rats. The duration of treatment was eight days.

A word on the melting point: it is the temperature, or range, at which the solid turns liquid. `CCOC(=O)CON(C(=S)Nc1cc(Cl)ccc1C)C(C)C` [Example 9, Ethyl [[[[(5-Chloro-2-methylphenyl)amino]thioxomethyl](1-methylethyl)amino]oxy]acetate]: the melting point lay within 83 to 85 °C. In addition, the change in vivo at 100 mg/kg in the series on Male Sprague-Dawley rats turned out to be 46%.
Consider `CCOC(=O)CON(C)C(=S)Nc1cc(Cl)ccc1C` [Example 1, Ethyl [[[[(5-Chloro-2-methylphenyl)amino]thioxomethyl]methylamino]oxy]acetate], for which the melting point lay within 83 to 84 °C. The change in vivo at 100 mg/kg in the series on Male Sprague-Dawley rats was 118%.
“Ethyl [[methyl[[(2-(1-methylethyl)phenyl]amino]thioxomethyl]methylamino]oxy]acetate [Example 4]”: the “HDL Cholesterol Level Increase (%)” value in the series on Male Sprague-Dawley rats was 104%.
Consider `CCOC(=O)CON(C)C(=S)NCC(C)C` [Example 6, Ethyl [[[[(2-methylpropyl)amino]thioxomethyl]methylamino]oxy]acetate], for which the change in vivo at 100 mg/kg in the series on Male Sprague-Dawley rats stood at 17%.
For the compound `CCOC(=O)CON(C)C(=S)Nc1cc(C)ccc1C` [Example 5, Ethyl [[[[(2,5-dimethylphenyl)amino]thioxomethyl]methylamino]oxy]acetate], the change in vivo at 100 mg/kg with Male Sprague-Dawley rats came to 40%.
As for `CCOC(=O)CON(C)C(=S)Nc1ccc(Cl)cc1C` [Example 2, Ethyl [[[[(4-Chloro-2-methylphenyl)amino]thioxomethyl]methylamino]oxy]acetate], the melting point lay in the range of 104 to 106 °C. The change in vivo at 100 mg/kg with Male Sprague-Dawley rats was 62%.
For `CCOC(=O)CON(C(=S)Nc1cc(Cl)ccc1C)C(C)CC` (stereo not drawn) [Example 10, Ethyl [[[[(5-Chloro-2-methylphenyl)amino]thioxomethyl](1-methylpropyl)amino]oxy]acetate], in the series on Male Sprague-Dawley rats, the change in vivo at 100 mg/kg worked out at 39%.
In turn, `CCOC(=O)CON(CC)C(=S)Nc1ccc(Cl)cc1C` [Example 8, Ethyl [[[[(4-Chloro-2-methylphenyl)amino]thioxomethyl]ethylamino]oxy]acetate] displayed a melting point of 69 to 71 °C. Moreover, in the series on Male Sprague-Dawley rats, the change in vivo at 100 mg/kg is 90%.
As to `CCOC(=O)CON(C)C(=S)Nc1ccc2c(c1)CCC2` [Example 3, Ethyl [[[[(2,3-dihydro-1H-inden-5-yl)amino]thioxomethyl]methylamino]oxy]acetate], the melting point fell in the range of 69 to 71 °C. In the series with Male Sprague-Dawley rats, the change in vivo at 100 mg/kg is 146%.
As for `CCOC(=O)CON(C)C(=S)Nc1ccc(Oc2ccccc2)cc1` [Example 7, Ethyl [[[[(4-phenoxyphenyl)amino]thioxomethyl]methylamino]oxy]acetate], the change in vivo at 100 mg/kg in the series with Male Sprague-Dawley rats was determined as 35%.
